This is an account of results in patent US6673770B1, “Peptides for the treatment, prophylaxis, diagnosis and monitoring of autoimmune diseases” (Upither B.V., priority 1998, dated 2004).

In one assay the target is T1, MHC class II RT1.B^L (Rattus norvegicus, UniProt P20037+P29826).
T1 sequence (P20037 24-256): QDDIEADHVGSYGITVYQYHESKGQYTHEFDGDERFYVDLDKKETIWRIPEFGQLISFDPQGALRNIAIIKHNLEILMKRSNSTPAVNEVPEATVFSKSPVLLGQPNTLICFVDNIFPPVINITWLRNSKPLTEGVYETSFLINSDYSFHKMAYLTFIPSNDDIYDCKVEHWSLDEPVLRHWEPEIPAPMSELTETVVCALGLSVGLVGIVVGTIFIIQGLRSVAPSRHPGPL
T1 sequence (P29826 28-263): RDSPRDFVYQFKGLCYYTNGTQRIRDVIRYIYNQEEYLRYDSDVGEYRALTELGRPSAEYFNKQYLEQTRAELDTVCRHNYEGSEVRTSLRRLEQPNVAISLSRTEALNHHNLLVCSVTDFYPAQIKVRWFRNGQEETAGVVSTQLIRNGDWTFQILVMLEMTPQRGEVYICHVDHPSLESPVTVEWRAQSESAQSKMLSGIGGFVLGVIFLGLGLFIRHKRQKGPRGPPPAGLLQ
The assay can be described thus: MHC-peptide competition binding assay on isolated RT1.B^L molecules. On the set-up: species or system Lewis rat. From the text:
Because the rat self-antigen to which the A2b T-clone is reactive is not known at present time, the present inventors have designed a computer search strategy based on the interactions of the mycobacterial hsp65 178-186 peptide within the trimolecular complex of MHC class II (RT1.B^L)-mycobacterial hsp65 178-186-T-cell receptor of clone A2b, to identify relevant candidate arthritis-associated antigens that can serve as target for autoimmune T-cell mediated tissue destruction in arthritis. Within the mycobacterial hsp65 178-186 sequence, residues involved in MHC binding have been identified by using an MHC-peptide binding assay on isolated MHC class II RT1.B^L proteins. The residues which have an important role in determining the RT1.B^L binding affinity of the mycobacterial hsp65 178-186 peptide, the so-called MHC anchor residues were determined. By studying the MHC-peptide binding affinities of other non-related peptides, a general MHC-peptide binding motif for the Lewis rat RT1.B1 molecule was defined (Wauben et al., Int. Immunol. 9:281 (1997)). For the definition of residues within the minimal core sequence mycobacterial hsp65 180-186, interacting with the T-cell receptor of the A2b T cell clone, the results derived from MHC-peptide binding assays, and proliferation assays of the A2b T cell clone were integrated.
#RT1.B^L binding affinity is expressed as 50%ID (=inhibitory dose). The 50%ID value indicates the concentration of peptide needed to inhibit 50% binding of the marker peptide in a competition assay on isolated RT1.B^L molecules.

Assay [1] deals with peripheral blood lymphocytes (PBL) of RA/JCA patients. Nature of the assay: 6-days proliferation assay on PBLs of RA and JCA patients. Type of assay: cell-based, human. The following applies: number of patients with PBL proliferation >2 times background; 15-mers at 1 μg/ml and 10 μ/ml. On the procedure: T-cell responses to the selected peptides in patients are analysed by studying T-cell proliferation of peripheral blood lymphocytes (PBL) and synovial fluid derived cells. […] In these human studies the peptides are tested as 15-mers containing the 9-mer sequence of Table 2 as core sequence. […] This is further strengthened by the fact that, the patients were not selected for having a certain MHC haplotype. The MHC binding affinity of the selected peptides is analysed for the most-common MHC class II-arthritis associations. In Table 3 the peptide binding affinity for DRB1*0401 is shown as an example. The peptide binding affinity is tested in a MHC-peptide competition assay on isolated MHC molecules in the presence of a labelled marker peptide. The fact that of the n=12 peptides selected for binding to the rat DQ equivalent RT1.B^1, n=11 peptides also bind DRB1*0401, further confirms the promiscuous MHC binding of the selected peptides. This ensures a wide applicability of the peptides for prophylaxis, treatment, monitoring and/or diagnosis of the disease.
^ Indicated are the numbers of patients responding to tire peptides as defined in a 6-days proliferation assay on PBLs. Responses were considered positive if the proliferation (as measured by ^3H-thymidine incorporation) was >2 times background proliferation. Peptides were tested in concentrations of 1 μg/ml and 10 μ/ml.

The target in another assay is DRB1*0401 (Homo sapiens, UniProt P01903+P01911, A100K/A169T/F76Y/I96L/K127E/L162R/M171V/N62H/P40V/Q125Y/R42H/S133A/S149N/S66Y/V115G/V209L/W38E). Nature of the assay: MHC-peptide competition binding assay on isolated DRB1*0401 molecules. The settings on record: DRB1*0401 1 μM, biotinylated HA-marker peptide 100 nM, peptide 0-256 μM; read-out: DRB1*0401 binding (IC50). On the procedure: T-cell responses to the selected peptides in patients are analysed by studying T-cell proliferation of peripheral blood lymphocytes (PBL) and synovial fluid derived cells. […] In these human studies the peptides are tested as 15-mers containing the 9-mer sequence of Table 2 as core sequence. […] The MHC binding affinity of the selected peptides is analysed for the most-common MHC class II-arthritis associations. […] The peptide binding affinity is tested in a MHC-peptide competition assay on isolated MHC molecules in the presence of a labelled marker peptide.
# MHC-peptide binding was measured as described in Wauben et al., Int. Immunol. […] Peptide binding is expressed as tire IC50.

For another assay, the system named is arthritis. Nature of the assay: Arthritis induction by immunisation with peptide in DDA adjuvant. Type of assay: in vivo. The following applies: rats with clinical arthritis/rats immunised; 50 μg peptide in 100 μl DDA, one hind footpad. How it is done:
To check the arthritogenic potential of the selected peptides, rats are immunised with 50 μg peptide in 100 μl DDA adjuvant in one hind footpad. […] Two of the five peptides show defined clinical arthritis. * Arthritis is induced by Immunisation of 50 μg peptide in 100 μl DDA adjuvants in one hind footpad and scored upon clinical examination.

For the next assay, the system named is DTH reaction. The assay can be described thus: Delayed type hypersensitivity reaction after peptide/DDA immunisation. The settings on record: challenge day 72, peptide/saline s.c. in ear; measured 24 and 48 hr. The format is in vivo, rats. On the procedure: # DTH (Delayed type hypersensitivity) reactions are induced at day 72 after immunisation of peptide/DDA, by subcutaneous injection of the peptide/saline in the ear. DTH are measured 24 and 48 hr after challenge.

For another assay, the system named is adjuvant arthritis. The assay can be described thus: Nasal peptide administration in the adjuvant arthritis model. The format is in vivo, rats. The settings on record: for Day of onset / Arthritis score: 100 μg peptide nasal at days 0, 3, 7, 11, mean±sd, n=4 rats; for Arthritis score: scale 0-16. How it is done:
The potential arthritis protective qualities of selected peptides/proteins are tested through nasal or oral tolerance induction in the adjuvant arthritis model.
* Adjuvant arthritis is induced at day 0 by immunisation of MT/IFA (5 mg/ml MT) at the base of the tail. At days 0, 3, 7 and 11, 100 μg peptide in 10 μl saline is administered in the nostrils. Arthritis is scored upon clinical examination on a scale from 0-16. Data are expressed as mean±sd (n=4 rats/group).

In assay [2] the test system is T cells from inguinal and popliteal lymph nodes and spleen. The assay can be described thus: T-cell recognition (proliferation) during adjuvant arthritis time course. The format is cell-based, Lewis rats. The following applies: positive: proliferation more than 1.5 times background in more than 25% of organs; days 14, 19, 21, 32, 39.
In another assay the test system is T cell clone A2b. Nature of the assay: Recognition by A2b T-cell clone: proliferation and/or activation marker expression. The following applies: positive: proliferation more than 2 times background in 2 of 4 experiments and/or activation marker upregulation in 2 of 3 experiments. The format is cell-based, Lewis rats. How it is done:
As an immediate read-out for mimicry peptides T-cell activation is measured by proliferation, TcR downregulation, expression of activation markers, and cytokines responses of clone A2b. In addition A2b-like T cells from arthritic rats are isolated, and activation of such cells is measured by, proliferation, TcR downregulation, expression of activation markers, and cytokines responses. Furthermore, T-cell lines are generated after immunisation with MT/IFA or selected peptides/DDA. The cross-reactive nature of the peptide specific T-cell responses is analysed in vitro by determining the recognition of both the self peptide as well as the mycobacterial hsp65 178-186 peptide. After testing the panel of n=65 peptides for induction of proliferation of T cell clone A2b, and/or induction of expression of activation markers, n=20 peptides (SEQ ID NOs: 15, 19, 20, 21, 22, 23, 24, 26, 30, 31, 32, 33, 35, 49, 51, 61, 63, 65, 67, 69) were considered positive. Criteria for positivity were that in 2 out of 4 experiments the induced proliferation was more than 2 times background proliferation as measured by ^3H-thymidine incorporation, and/or that in 2 out of 3 experiments upregulation of an activation marker was detectable by FACS analysis.

Ends that are not written are not given here.

In the case of TFGLQAELT [SEQ ID NO: 9, TFGLQAELT], the IC50 (commonly the concentration at which inhibition is half-maximal) on MHC class II RT1.B^L was 32 to 64 µM.
Turning to TFALQLELT [SEQ ID NO: 6, TFALQLELT], the IC50 at MHC class II RT1.B^L was 32 to 64 µM.
As for “SAFWPSLPSYLDAAY [SEQ ID NO: 71, SAFWPSLPSYLDAAY]”, in assay [1], the “RA patients responding (n = 39 tested)” value is reported as 4. Moreover, the IC50 at DRB1*0401 was in the range of 8 to 16 µM.
TFGLALELT [SEQ ID NO: 8, TFGLALELT] returned an IC50 on MHC class II RT1.B^L of more than 256 µM.
As for TFGAQLELT [SEQ ID NO: 7, TFGAQLELT], the IC50 on MHC class II RT1.B^L lay in the range of 8 to 16 µM.
Still for that read-out and setting: next, TAGLQLELT [SEQ ID NO: 5, TAGLQLELT]: 64 to 128 µM.
Take AFGLQLELT [SEQ ID NO: 4, AFGLQLELT]: on MHC class II RT1.B^L, the IC50 lay in the range of 64 to 128 µM.
Turning to TFGLQLALT [SEQ ID NO: 10, TFGLQLALT], the IC50 on MHC class II RT1.B^L fell in the range of 128 to 256 µM.
“TFGLQLELT [SEQ ID NO: 3, TFGLQLELT, reference compound]”: on MHC class II RT1.B^L, the IC50 was 32 to 64 µM.
For “WPSLPSNMD (listed as Rattus sp.) [SEQ ID NO: 48]”, the “Arthritis Induction” value in the assay with arthritis is reported as 1/4. Besides, the DTH reaction with DTH reaction is recorded as 0/2. For the same sequence, in the assay with adjuvant arthritis, the Day of onset came to 13.3 ± 1.0 and the Arthritis score came out at 10.5 ± 1.7.
As for “WPSLPSGLD (listed as Rattus sp.) [SEQ ID NO: 50]”, the “Arthritis Induction” value in the assay on arthritis is given as 2/4. In the assay with DTH reaction, the DTH reaction is given as 0/2. Moreover, in the assay on adjuvant arthritis, the Day of onset worked out at 14.3 ± 2.0 and the Arthritis score was found to be 11.3 ± 3.8. Moreover, the “T-cell recognition during adjuvant arthritis” value in assay [2] is reported as “positive”.
Regarding “SSFWPSLPSGVDAAY [SEQ ID NO: 73, SSFWPSLPSGVDAAY]”, the “RA patients responding (n = 39 tested)” value in assay [1] came to 4. Besides, the IC50 at DRB1*0401 was in the range of 16 to 32 µM.
TFGLQLEAT [SEQ ID NO: 11, TFGLQLEAT] displayed a concentration for half-maximal inhibition (IC50) at MHC class II RT1.B^L of 32 to 64 µM.
As for “NAMLKSICEVLDLER [SEQ ID NO: 81, NAMLKSICEVLDLER]”, in assay [1], the “JCA patients responding (n = 6 tested)” value amounted to 1 and the “RA patients responding (n = 39 tested)” value is listed as 2. Moreover, the IC50 on DRB1*0401 was more than 256 µM.
In the case of “LKSVNGQIE (listed as Rattus sp.) [SEQ ID NO: 15]”, in the assay on arthritis, the “Arthritis Induction” value was 0/4. Moreover, the DTH reaction in the assay with DTH reaction is listed as 2/2. Further, in the assay on adjuvant arthritis, the Day of onset worked out at 15.0 ± 1.7 and the Arthritis score stood at 4.3 ± 4.8. In the assay with adjuvant arthritis (in words), the “Protective effect in adjuvant arthritis upon nasal administration” value was “protective effect”. Also, in the assay with T cell clone A2b, the “Recognition by T cell clone A2b” value is on record as “positive”.
Sequence TFGLQLELA [SEQ ID NO: 12, TFGLQLELA] yielded a concentration for half-maximal inhibition (IC50) on MHC class II RT1.B^L of 32 to 64 µM.
On to “VSSFSLNVE (listed as Rattus sp.) [SEQ ID NO: 26]”, for which, in the assay on arthritis, the “Arthritis Induction” value is 0/4. Moreover, the DTH reaction in the assay on DTH reaction is on record as 2/2. Also, in the assay on adjuvant arthritis, the Day of onset came to 13.0 ± 0 and the Arthritis score turned out to be 11.0 ± 3.5. Also, the “Recognition by T cell clone A2b” value with T cell clone A2b is “positive”.
Take “FFYFFTGSSQLEFDP [SEQ ID NO: 70, FFYFFTGSSQLEFDP]”: in assay [1], the “JCA patients responding (n = 6 tested)” value worked out at 2 and the “RA patients responding (n = 39 tested)” value is recorded as 29^. The half-maximal inhibitory concentration (IC50) at DRB1*0401 was less than 8 µM.
For the sequence “VQTAVTNID (listed as Rattus sp.) [SEQ ID NO: 53]”, in the assay on arthritis, the “Arthritis Induction” value was 0/4. Besides, the DTH reaction with DTH reaction was 2/2. In assay [2], the “T-cell recognition during adjuvant arthritis” value is “positive”.
